Measurements reported in patent publication EP0238178B1, “Novel derivatives of erythromycylamine” (ELI LILLY AND COMPANY, priority 1986, dated 1987).
In brackets after ≈: the same amount, converted by molar mass. Like-named read-outs stand apart in the source and are kept apart here.

Key:
[1] = tested on: Staphylococcus aureus X1.1; assay: MIC, standard agar-dilution assay; format: cell-based
[2] = tested on: Staphylococcus aureus V41; assay: MIC, standard agar-dilution assay; format: cell-based
Excerpt: (§1) In addition to excellent in vitro activity against erythromycin-sensitive bacteria, several members of this new series have shown in vitro activity against erythromycin-resistant strains. These include strains which are inducibly-resistant to erythromycin (S.. aureus V41 and X400 and S. epidermidis EPI1) and even strains which are constitutively-resistant (S. epidermidis 270).

[3] = tested on: Staphylococcus aureus X400; assay: MIC, standard agar-dilution assay; format: cell-based
Excerpt: as §1

[4] = tested on: Staphylococcus aureus S13E; assay: MIC, standard agar-dilution assay; format: cell-based
[5] = tested on: Staphylococcus epidermidis 222; assay: MIC, standard agar-dilution assay; format: cell-based
[6] = tested on: Streptococcus pyogenes C203; assay: MIC, standard agar-dilution assay; format: cell-based
[7] = tested on: Streptococcus pneumoniae Park I; assay: MIC, standard agar-dilution assay; format: cell-based
[8] = tested on: Streptococcus sp. group D X66; assay: MIC, standard agar-dilution assay; format: cell-based
[9] = tested on: Streptococcus sp. group D 2041; assay: MIC, standard agar-dilution assay; format: cell-based
[10] = tested on: Haemophilus influenzae C.L.; assay: MIC, standard agar-dilution assay; format: cell-based; conditions: Ampicillin-sensitive strain
[11] = tested on: Haemophilus influenzae 76; assay: MIC, standard agar-dilution assay; format: cell-based; conditions: Haemophilus influenzae 76, Ampicillin-resistant strain
Escherichia coli EC14 = assay: MIC, standard agar-dilution assay; format: cell-based
[12] = tested on: Klebsiella pneumoniae X68; assay: MIC, standard agar-dilution assay; format: cell-based
Staphylococcus aureus = assay: Experimental bacterial infection in mice, ED50; format: in vivo; conditions: Staphylococcus aureus, two doses, dose protecting 50% of animals
Procedure: (§2) The new derivatives of this invention have also shown in vivo antimicrobial activity against experimental bacterial infections. When two doses of test compound were administered to mice in experimental infections, the activity observed was measured as an EDso value [effective dose in mg/kg to protect 50% of the test animals: see Warren Wick, et al., J. Bacteriol. 81, 233-235 (1961)].

Streptococcus pneumoniae = assay: Experimental bacterial infection in mice, ED50; format: in vivo; conditions: Streptococcus pneumoniae, po, two doses, dose protecting 50% of animals, read-out: Oral ED50
Procedure: as §2

Streptococcus pyogenes = assay: Experimental bacterial infection in mice, ED50; format: in vivo; conditions: Streptococcus pyogenes, po, two doses, dose protecting 50% of animals, read-out: Oral ED50
Procedure: as §2

[13] = tested on: Staphylococcus epidermidis EPI1; assay: MIC, standard agar-dilution assay; format: cell-based
Excerpt: as §1

[14] = Staphylococcus aureus V41, Penicillin-resistant strain, inducibly-resistant to erythromycin, read-out: MIC
[15] = Staphylococcus aureus X400, Methicillin-resistant strain, inducibly-resistant to erythromycin, read-out: MIC
[16] = Streptococcus sp. group D X66, read-out: MIC
[17] = sc, subcutaneous, read-out: Subcutaneous ED50

Compound | MIC [4] [µg/mL] | MIC [5] [µg/mL] | MIC ([1]; read-out: MIC) [µg/mL] | MIC [2, 14] [µg/mL] | MIC [3, 15] [µg/mL] | MIC ([5]; read-out: MIC) [µg/mL] | MIC ([6]; read-out: MIC) [µg/mL] | MIC ([7]; read-out: MIC) [µg/mL] | MIC [8, 16] [µg/mL] | MIC ([9]; read-out: MIC) [µg/mL] | MIC ([10]; read-out: MIC) [µg/mL] | MIC ([11]; read-out: MIC) [µg/mL] | MIC (Escherichia coli EC14; read-out: MIC) [µg/mL] | MIC ([12]; read-out: MIC) [µg/mL] | ED50 (Staphylococcus aureus; po, read-out: Oral ED50) [mg/kg] | ED50 (Streptococcus pneumoniae) [mg/kg] | ED50 (Streptococcus pyogenes) [mg/kg] | MIC [13] [µg/mL] | ED50 (Staphylococcus aureus; [17]) [mg/kg] | further results
9-Deoxo-9-[(5-dimethylamino-2-pentyl)amino]-9,11-1N,O)-cyclic. Methylene Adduct of Erythromycin [Compound 63] | 8 | 8 | – | – | – | – | – | – | – | – | – | – | – | – | – | – | – | – | – | MIC [1]: 8 µg/mL; MIC ([2]; Staphylococcus aureus V41, Penicillin-resistant strain, inducibly-resistant to erythromycin): – (– = >128); MIC ([3]; Staphylococcus aureus X400, Methicillin-resistant strain, inducibly-resistant to erythromycin): – (– = >128); MIC [6]: 0.5 µg/mL; MIC [7]: 0.5 µg/mL; MIC ([8]; Streptococcus sp. group D X66): 2 µg/mL; MIC [9]: 32 µg/mL; MIC [10]: 8 µg/mL; MIC [11]: 8 µg/mL; MIC (Escherichia coli EC14): 32 µg/mL; MIC [12]: 128 µg/mL
CCC(CC)CN[C@@H]1[C@H](C)[C@@H](O)[C@](C)(O)[C@@H](CC)OC(=O)[C@H](C)[C@@H](O[C@H]2C[C@@](C)(OC)[C@@H](O)[C@H](C)O2)[C@H](C)[C@@H](O[C@@H]2O[C@H](C)C[C@H](N(C)C)[C@H]2O)[C@](C)(O)C[C@H]1C [Compound 12, 9-Deoxo-9-[(2-ethylbutyl)amino]erythromycin] | 0.25 (≈ 0.305 µM) | – | 0.5 (≈ 0.61 µM) | 16 (≈ 19.5 µM) | 16 (≈ 19.5 µM) | 0.5 (≈ 0.61 µM) | 0.015 (≈ 0.0183 µM) | 0.015 (≈ 0.0183 µM) | 0.125 (≈ 0.153 µM) | 8 (≈ 9.77 µM) | 2 (≈ 2.44 µM) | 2 (≈ 2.44 µM) | 64 (≈ 78.1 µM) | 32 (≈ 39.1 µM) | 22.3 | 16.6 | 9.4 | – | – | –
CC[C@H]1OC(=O)[C@H](C)[C@@H](O[C@H]2C[C@@](C)(OC)[C@@H](O)[C@H](C)O2)[C@H](C)[C@@H](O[C@@H]2O[C@H](C)C[C@H](N(C)C)[C@H]2O)[C@](C)(O)C[C@@H](C)[C@H]2[C@H](C)[C@@H](OCN2C(C)C)[C@]1(C)O [Compound 58, 9-Deoxo-9-[isopropylamino]-9,11-(N,O)-cyclic Methylene Adduct of Erythromycin] | 1 (≈ 1.27 µM) | – | 1 (≈ 1.27 µM) | – | – | 0.5 (≈ 0.634 µM) | 0.125 (≈ 0.158 µM) | 0.06 (≈ 0.076 µM) | 0.25 (≈ 0.317 µM) | 4 (≈ 5.07 µM) | 4 (≈ 5.07 µM) | 4 (≈ 5.07 µM) | 32 (≈ 40.6 µM) | 64 (≈ 81.1 µM) | – | 5.7 | 6.7 | 128 (≈ 162 µM) | > 10 | MIC ([2]; Staphylococcus aureus, V41): > 128 µg/mL; MIC ([3]; Staphylococcus aureus, X400): > 128 µg/mL
CCCN1CO[C@@H]2[C@@H](C)[C@@H]1[C@H](C)C[C@@](C)(O)[C@H](O[C@@H]1O[C@H](C)C[C@H](N(C)C)[C@H]1O)[C@@H](C)[C@H](O[C@H]1C[C@@](C)(OC)[C@@H](O)[C@H](C)O1)[C@@H](C)C(=O)O[C@H](CC)[C@@]2(C)O [Compound 59] | 0.125 (≈ 0.158 µM) | 0.125 (≈ 0.158 µM) | 0.25 (≈ 0.317 µM) | 8 (≈ 10.1 µM) | 8 (≈ 10.1 µM) | – | < 0.008 | < 0.008 | – | 1 (≈ 1.27 µM) | 1 (≈ 1.27 µM) | 2 (≈ 2.53 µM) | 32 (≈ 40.6 µM) | 128 (≈ 162 µM) | 7.2 | 5 | 4.8 | > 128 | – | MIC ([8]; Streptococcus): 0.125 µg/mL (≈ 0.158 µM)
CC[C@H]1OC(=O)[C@H](C)[C@@H](O[C@H]2C[C@@](C)(OC)[C@@H](O)[C@H](C)O2)[C@H](C)[C@@H](O[C@@H]2O[C@H](C)C[C@H](N(C)C)[C@H]2O)[C@](C)(O)C[C@@H](C)[C@H]2[C@H](C)[C@@H](OCN2C2CCCC2)[C@]1(C)O [Compound 60] | 2 (≈ 2.45 µM) | – | 1 (≈ 1.23 µM) | > 128 | > 128 | 1 (≈ 1.23 µM) | 0.125 (≈ 0.153 µM) | 0.06 (≈ 0.0736 µM) | 0.5 (≈ 0.613 µM) | 8 (≈ 9.81 µM) | 4 (≈ 4.91 µM) | 4 (≈ 4.91 µM) | 64 (≈ 78.5 µM) | 64 (≈ 78.5 µM) | > 50 | 9 | 10.2 | > 128 | 5 | –
